Test results taken from patent US20260083704A1, “LXR MODULATORS WITH BICYCLIC CORE MOIETY FOR TREATING DYSLIPIDEMIAS” (OrsoBio, Inc., priority 2022, published 2026).

What was measured:
HFD-fed (DIO) mice = experiment: Intestinal lipid absorption (3H-triolein tracer) in HFD-fed mice; type: in vivo; conditions: 5 mg/kg oral gavage
Description: (§1) Data are shown as mean±SD. N=5-8 animals per group. *p≤0.05, **p≤0.01, ***p≤0.001, ****p≤0.0001 vs. vehicle, unless otherwise indicated; ^#p≤0.05 pioglitazone vs. vehicle Kruskal-Wallis (non-parametric One-Way ANOVA) test with Dunn's multiple comparisons test (FIG. 4A, FIG. 4B, FIG. 4D), repeated measures two-way ANOVA with Dunnett's multiple comparisons test (FIG. 4C), two-way ANOVA with Sidak's multiple comparisons test (FIG. 4E), Mann-Whitney test (FIG. 4F-G).
In addition to the effects of Compound 21/3 on hepatic DNL, the observed reductions in plasma TG in these models may be mediated by reduced intestinal TG absorption, as well as increased clearance of TG-containing lipoproteins from the circulation. […] Further, LXR inhibition with Compound pre-6/3 reduced intestinal lipid absorption as measured by reduced uptake of ^3H-labelled triolein tracer in HFD-fed mice (FIG. 4E). Additionally, Compound 21/3 reduced hepatic expression and plasma levels of ANGPTL3, an inhibitor of LPL, the predominant enzyme involved in the clearance of TG-rich lipoproteins from the circulation (FIG. 4F). Loss-of-function variants in ANGPTL3 are associated with reduced serum lipids and a lower risk of CAD (Dewey, Gusarova et al. 2017). […]

[1] = test system: steatotic human liver organoids (sHLO); experiment: Steatotic human liver organoid (sHLO) model; type: cell-based; conditions: 3 days
Procedure: Data in FIG. 2A are obtained from (Ouchi, Togo et al. 2019). Data are shown as mean±SD. n=4 wells per treatment.
Activity of Compound 21/3 was also evaluated in an induced pluripotent stem cell (iPSC)-derived human liver organoid (HLO) model established from human donors with different genetic backgrounds, including those with known genetic risk variants for NASH (Ouchi, Togo et al. 2019). The HLOs were exposed to high concentrations of lipid to induce a reproducible steatotic NASH phenotype (sHLO) with increased expression of DNL genes, including NR1H3, the gene that encodes LXRα (FIG. 2A) (Ouchi, Togo et al. 2019, Minniti, Pedrelli et al. 2020). […] Mutations in GCKR have been associated with increased circulating lipids, hepatic DNL, and diseases including diabetes and NASH (Fernandes Silva, Vangipurapu et al. 2019).

HFD-fed SD rats = experiment: HFD-fed Sprague-Dawley (SD) rat model; type: in vivo
Description: as §1
Data are shown as mean±SD. N=5-8 animals per group. *p≤0.05, **p≤0.01, ***p≤0.001, ****p≤0.0001 vs. vehicle, unless otherwise indicated; ^#p≤0.05 pioglitazone vs. vehicle repeated measures two-way ANOVA with Dunnett's multiple comparisons test (FIG. 5A, FIG. 5C, FIG. 5D), Kruskal-Wallis (non-parametric one-way ANOVA) test with Dunn's multiple comparisons test (FIG. 5B, FIG. 5E).
The efficacy of Compound 21/3 was evaluated in three dysmetabolic rodent models including DIO mice, HFD-fed ZDF rats, and HFD-fed SD rats (FIG. 4 and FIG. 5). Briefly, DIO mice were fed a HFD (60% kcal from fat) for 14 weeks and treated with Compound 21/3 (0.3 and 1 mg/kg once daily by oral gavage) for three weeks, while ZDF and SD rats were fed HFD for two weeks prior to treatment with Compound 21/3 (0.1 and 1 mg/kg once daily by oral gavage) for two or three weeks, respectively.

healthy subjects = experiment: Phase 1 study, SAD cohorts: safety and tolerability; type: in vivo, human; conditions: range over dose groups
Procedure: A double-blind, placebo-controlled, single- and multiple-ascending dose FIH Phase 1 study to evaluate the safety, tolerability, PK, and PD of Compound 21/3 in healthy adult subjects was performed. A total of up to 150 subjects were enrolled, including 100 subjects in Parts A and B, and up to 50 subjects in adaptive cohorts in Part C. Within each cohort, 10 subjects were randomized, including 8 subjects randomized to Compound 21/3 and 2 subjects to PTM (placebo-to-match). In single-dose cohorts in Parts A and in any Part C cohort evaluating a higher total daily dose than previously evaluated, safety and tolerability data collected through Day 2 from two sentinel subjects, one randomized to Compound 21/3 and one to PTM, were evaluated prior to dosing of the remaining subjects in each cohort.
An approximately even distribution of healthy male and non-pregnant, non-lactating female subjects 18 to 55 years of age, inclusive, were to be enrolled in the study. There were no significant medical conditions by history, physical examination, or laboratory evaluation. Subjects were not allowed to participate in more than one cohort of the study. Within each MAD cohort, attempts were made to enrich for >3 subjects with elevated TG and/or LDL-C. Following the completion of Screening and admission assessments, eligible subjects were to be enrolled on Day −1. […]

ApoC3 and ANGPTL3 = experiment: Phase 1 study, MAD cohorts: plasma ApoC3 and ANGPTL3 by ELISA; type: in vivo, human; conditions: healthy subjects, Day 1 to Day 14, 12 h postdose
Procedure: Lipid parameters, including apolipoprotein B (apoB), were evaluated by NMR LipoProfile® (Labcorp, Burlington, NC. Plasma ApoC3 and ANGPTL3 were evaluated by ELISA (360biolabs, Melbourne, Australia). Peripheral RCT (reverse cholesterol transport) were evaluated by assessing changes in expression of ABCA1/ABCG1 in PBMCs, predose and 4 hours postdose on Days 1 and 14 (Gnomix, Bedford Park, Australia).
In FIG. 14A to 14C, ApoC3 and ANGPTL3 measured 12 h postdose. RCT assessed predose and 4 h postdose on Day 14.

| SMILES | intestinal lipid absorption (uptake of 3H-labelled triolein tracer) (HFD-fed (DIO) mice) | intracellular lipid content ([1]; patient-derived sHLOs) | expression of DNL-associated genes ([1]; sHLOs from GCKR wild-type (CC) or mutant (TT) carriers) | liver expression of DNL genes (Srebp1c, Fasn, Acaca, Scd1) (HFD-fed SD rats; 0.1 and 1 mg/kg once daily oral) | reduction of plasma TG compared with vehicle (HFD-fed SD rats; highest dose 1 mg/kg, p≤0.05) | maximal reduction of liver TG versus vehicle (HFD-fed SD rats; p=0.07) | proportion of subjects with adverse events (AEs) (healthy subjects) | plasma ApoC3 and ANGPTL3 (ApoC3 and ANGPTL3) |
| --- | --- | --- | --- | --- | --- | --- | --- | --- |
| N#Cc1cccc(C#N)c1-c1c(-c2cccc(-c3ccc(C(=O)O)cc3Cl)c2)n(S(=O)(=O)c2ccc(C(F)F)cc2)c2ccc(F)cc12 [pre-6/3] | reduced |  |  |  |  |  |  |  |
| N#Cc1cccc(C#N)c1-c1c(-c2cccc(-c3ccc(C(=O)NCC(=O)O)cc3Cl)c2)n(S(=O)(=O)c2ccc(C(F)F)cc2)c2ccc(F)cc12 [Compound 21/3] |  | dose-dependently reduced | suppressed | dose-dependently reduced | 59% | 42% | 13-50% | reduces |
